Experimental data published in patent publication US10662203B2, “Pyrido[2,3-b]indole compounds for the treatment and prophylaxis of bacterial infection” (Hoffmann-La Roche Inc., priority 2017, dated 2020).
Values after ≈ are worked out from the molar mass of the structure shown.

How the values were obtained:
[1] = Cytotoxicity assay (HepG2, CellTiter-Blue cell viability); format: cell-based; settings: human; HepG2 cells, 3 days treatment; "*": the detection limit; read-out: CC50
Protocol: The cytotoxicity of compounds of present invention was assessed by HepG2 assay. HepG2 cells (ATCC HB-8065™) were seeded into 96-well plates (1.2×10^4 cells per well) and treated with compounds for 3 days, cell viability was measured at day 3 post compound treatment using the CellTiter-Blue® Cell Viability Assay (Promega, Cat. No. G8082). 20 μL of Cell titer blue buffer were added to each well of the cells, which were incubated for 3 hours at 37° C., and the fluorescence value was measured by a plate reader (Molecular Device SpectraMax M2). The CC50 value of each compound is plotted with GraphPad Prism using four parameter logistic equation.

[2] = Lyophilisation solubility assay (LYSA); format: physicochemical; settings: phosphate buffer, pH 6.5, aqueous buffer, thermodynamic from solid, 0.05 M phosphate buffer, HPLC-UV
Procedure, shortened: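 Duplicate samples made from 10 mM DMSO stock. DMSO evaporated and the residue taken up in 0.05 M phosphate buffer, pH 6.5, stirred 1 h and shaken 2 h, then left overnight. Filtrate and its 1/10 dilution quantified by HPLC-UV.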

S. aureus (ATCC29213) = test: 50% growth inhibitory concentration (IC50) determination assay; format: cell-based; settings: Staphylococcus aureus, Iso-Sensitest broth, 0.098 = detection limit
Procedure, shortened: (§1)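 Compounds were two-fold serially diluted (50 to 0.097 μM final) in Iso-Sensitest broth, with ~5×10^5 CFU/mL bacteria. Plates were incubated at 35±2° C and growth followed by OD600 every 20 min over 16 h to derive IC50.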

A. baumannii (ATCC17978) = test: as above; format: cell-based; settings: Acinetobacter baumannii, ATCC17978, A. baumannii ATCC17978; Iso-Sensitest broth; 0.098 = detection limit
Procedure, shortened: as §1

[3] = system: K. pneumoniae (ATCC10031); test: as above; format: cell-based; settings: Klebsiella pneumoniae, Iso-Sensitest broth, 0.098 = detection limit
Procedure, shortened: as §1

SMILES	CC50 at 3 days [1] [nM]	solubility thermodynamic [2] [µg/mL]	IC50 (S. aureus (ATCC29213)) [µM]	IC50 (A. baumannii (ATCC17978)) [µM]	IC50 [3] [µM]
CNc1cc(F)c(F)c2c1[nH]c1ncc(-c3cnc4c(c3)c(=O)c(C(=O)O)cn4C)c(N3CCC(N(C)C)CC3)c12 [Example 1.182]	91700	147 (≈ 262 µM)	0.177	0.423	< 0.098
CNc1cc(F)cc2c1[nH]c1ncc(-c3cnc4c(c3)c(=O)c(C(=O)O)cn4C)c(N3CCC[C@H]3CN(C)C)c12 [Example 1.162]	67600	695 (≈ 1280 µM)	0.162	0.283	< 0.098
CNc1cc(F)c(F)c2c1[nH]c1ncc(-c3cnc4c(c3)c(=O)c(C(=O)O)cn4C)c(N3CCC[C@H](N(C)C)C3)c12 [Example 3.06B]	40200	85 (≈ 151 µM)	< 0.098	0.176	< 0.098
CNc1cc(F)c(F)c2c1[nH]c1ncc(-c3cnc4c(c3)c(=O)c(C(=O)O)cn4C)c(N3CC4CN(C)C[C@@H]4C3)c12 (some centres unmarked) [Example 1.227]	28000	12 (≈ 21.4 µM)	0.132	0.294	< 0.098
CNc1cc(Cl)cc2c1[nH]c1ncc(-c3cnc4c(c3)c(=O)c(C(=O)O)cn4C)c(N3CCOC(CN(C)C)C3)c12 (centres unmarked) [Example 1.138]	47300	91 (≈ 158 µM)	< 0.098	0.302	< 0.098
CNc1cc(F)c(F)c2c1[nH]c1ncc(-c3cnc4c(c3)c(=O)c(C(=O)O)cn4C)c(N3CCC4(CCCN4C)CC3)c12 [Example 1.230]	> 100000	19 (≈ 32.3 µM)	0.099	0.376	< 0.098
CNc1cc(F)cc2c1[nH]c1ncc(-c3cnc4c(c3)c(=O)c(C(=O)O)cn4C)c(N3CCO[C@@H](CN(C)C)C3)c12 [Example 3.02A]	> 100000	480 (≈ 858 µM)	< 0.098	0.268	< 0.098
CCNc1cc(F)c(F)c2c1[nH]c1ncc(-c3cnc4c(c3)c(=O)c(C(=O)O)cn4C)c(N3CCC(CN(C)C)C3)c12 (centres unmarked) [Example 1.106]	91300	19 (≈ 33 µM)	< 0.098	0.244	< 0.098
CNc1cc(F)cc2c1[nH]c1ncc(-c3cnc4c(c3)c(=O)c(C(=O)O)cn4C)c(N3CCCC(CN(C)C)C3)c12 (centres unmarked) [Example 1.94]	38700	301 (≈ 540 µM)	< 0.098	0.155	< 0.098
CNc1cc(F)cc2c1[nH]c1ncc(-c3cnc4c(c3)c(=O)c(C(=O)O)cn4C)c(N3CCOCC(CN(C)C)C3)c12 (centres unmarked) [Example 1.90]	> 100000	700 (≈ 1220 µM)	0.216	0.411	< 0.098
CNc1cc(F)c(F)c2c1[nH]c1ncc(-c3cnc4c(c3)c(=O)c(C(=O)O)cn4NC)c(N3CCCC(CN(C)C)C3)c12 (centres unmarked) [Example 1.186]	45600	104 (≈ 176 µM)	< 0.098	0.236	< 0.098
CNc1cc(F)cc2c1[nH]c1ncc(-c3cnc4c(c3)c(=O)c(C(=O)O)cn4C)c(N3CCC(N(C)C)C3)c12 (centres unmarked) [Example 1.75]	68500	152 (≈ 287 µM)	0.108	0.108	< 0.098
CNc1cc(F)cc2c1[nH]c1ncc(-c3cnc4c(c3)c(=O)c(C(=O)O)cn4C)c(N3CCO[C@H](CN(C)C)C3)c12 [Example 3.02B]	> 100000	455 (≈ 813 µM)	< 0.098	0.444	< 0.098
CNc1c(F)c(F)cc2c1[nH]c1ncc(-c3cnc4c(c3)c(=O)c(C(=O)O)cn4C)c(N3CCOC(CN(C)C)C3)c12 (centres unmarked) [Example 1.78]	42500	530 (≈ 918 µM)	0.343	0.326	< 0.098
CNc1cc(F)cc2c1[nH]c1ncc(-c3cnc4c(c3)c(=O)c(C(=O)O)cn4C)c(N3CC[C@@H]4C(CCN4C)C3)c12 (some centres unmarked) [Example 1.188]	51600	20 (≈ 36 µM)	0.232	0.307	< 0.098
CNc1cc(F)c(Cl)c2c1[nH]c1ncc(-c3cnc4c(c3)c(=O)c(C(=O)O)cn4NC)c(N3CC[C@H]4CN(C)CC43)c12 (some centres unmarked) [Example 1.268]	33400	24 (≈ 40.6 µM)	< 0.098	0.065	< 0.098
CNc1cc(F)cc2c1[nH]c1ncc(-c3cnc4c(c3)c(=O)c(C(=O)O)cn4N3CCOCC3)c(N3CCOCC3)c12 [Example 1.71]	> 100000	11 (≈ 19.2 µM)	< 0.098	0.923	< 0.098
CNc1cc(F)c(F)c2c1[nH]c1ncc(-c3cnc4c(c3)c(=O)c(C(=O)O)cn4C)c(N3CC[C@H](N(C)C)C3)c12 [Example 1.254]	36100	23 (≈ 42 µM)	< 0.098	0.164	< 0.098
CNc1cc(F)c(F)c2c1[nH]c1ncc(-c3cnc4c(c3)c(=O)c(C(=O)O)cn4C)c(N3CCC4(CCN(C)C4)C3)c12 (centres unmarked) [Example 1.229]	53100	12 (≈ 20.9 µM)	< 0.098	0.297	< 0.098
CNc1cc(F)c(F)c2c1[nH]c1ncc(-c3cnc4c(c3)c(=O)c(C(=O)O)cn4C)c(N3CCC[C@@H](N(C)C)C3)c12 [Example 3.06A]	52500	66 (≈ 118 µM)	< 0.098	0.102	< 0.098
[2H]C([2H])([2H])Nc1cc(F)c(F)c2c1[nH]c1ncc(-c3cnc4c(c3)c(=O)c(C(=O)O)cn4C)c(N3CCC[C@H]3CN(C)C)c12 [Example 1.161]	> 100000	> 830	0.155	0.202	< 0.098
CNc1cc(F)c(F)c2c1[nH]c1ncc(-c3cnc4c(c3)c(=O)c(C(=O)O)cn4C)c(N3CCOC(CN(C)C)C3)c12 (centres unmarked) [Example 1.61]	> 100000	600 (≈ 1040 µM)	0.139	0.817	< 0.098
CNc1cc(F)c(F)c2c1[nH]c1ncc(-c3cnc4c(c3)c(=O)c(C(=O)O)cn4NC)c(N3CCOC(CN(C)C)C3)c12 (centres unmarked) [Example 1.181]	> 100000	70 (≈ 118 µM)	0.444	0.916	< 0.098
CCN(CC)CC1CN(c2c(-c3cnc4c(c3)c(=O)c(C(=O)O)cn4C)cnc3[nH]c4c(NC)cc(F)c(F)c4c23)CCO1 (centres unmarked) [Example 1.149]	66600	530 (≈ 875 µM)	< 0.098	0.362	< 0.098
CNc1cc(F)c(F)c2c1[nH]c1ncc(-c3cnc4c(c3)c(=O)c(C(=O)O)cn4C)c(N3CC[C@@H](CN4CCCC4)C3)c12 [Example 1.173]	44900	106 (≈ 180 µM)	< 0.098	0.216	< 0.098
